Measured values as given in patent publication US8444970B2, “Compositions and methods for treating ocular diseases and conditions” (Lpath, Inc., priority 2006, dated 2013).
“And” between values parts separate entries of the source, which are not always exact repeats. Equal values may be shown once.

Experiments:
[1] = test system: peripheral lymphocyte counts; details: single oral dose; cited from earlier work
[2] = test system: endothelial cell (EC) infiltration into Matrigel plugs; assay: In vivo Matrigel plug assay, S1P-supplemented plugs, EC infiltration; design: species or system mouse; details: plugs containing S1P
Method: Based on in vivo studies showing that S1P increased endothelial capillary growth into subcutaneously implanted Matrigel plugs, we speculated that SPHINGOMAB could reduce de novo BV formation in vivo. To investigate this, we employed the in vivo Matrigel Plug assay for neovascularization. In one set of experiments, Matrigel was supplemented with either […], 0.5 μg/mL bFGF or 1 μg/mL VEGF and then injected […]. into mice (n=4). After 10 days, the mice were heparinized and injected with the fluorescent lectin, Isolectin B4-FITC, which binds to adhesion molecules expressed by vascular EC that form the growing BVs. The plugs were then excised, frozen in OCT, sectioned and viewed for FITC-stained BVs.
Sections of the plugs were then stained with hemotoxyln & eosin for evaluation of EC infiltration (FIG. 6B). The infiltration of ECs is a critical step in neo-vascularization. […] Cell infiltration is presumed to be ECs although we recognize that other cell types such as immune cells may also be stained.

[3] = test system: human retinal pigmented epithelial cells; assay: alpha-SMA expression in retinal pigmented epithelial cells; type: cell-based
Description: (§1) In many of these disorders, circulating growth factors and chemokines promote the transformation of normal ocular cells into fibrocontractile, scar tissue-producing cells that have been termed “myofibroblasts”. Normally, myofibroblasts are responsible for tissue repair as part of the wound healing response following injury. However altered number and function of myofibroblasts are implicated in diseases characterized by pathological scar tissue formation in the liver, skin, lung, kidney, heart and eyes. In the eye, transformation of retinal pigmented epithelial (RPE) cells to a myofibroblast phenotype is linked to formation of fibro-contractile membranes which cause retinal detachment and subsequent vision impairment. In addition, myofibroblast transformation of ocular fibroblasts can result in abnormal scar tissue production after eye injury leading to subsequent vision loss. Although many of the circulating protein factors in the eye that promote myofibroblast formation have been identified, nothing is known regarding the role of lysolipids such as S1P in this process. Therefore, we examined the effects of S1P on myofibroblast transformation of several human ocular cell lines.
(§2) In these experiments, the ability of S1P to promote α-SMA expression differed in a concentration dependent manner between the retinal pigmented epithelial cells and conjunctiva fibroblasts. […]

[4] = test system: human conjunctiva fibroblasts; assay: alpha-SMA expression in conjunctiva fibroblasts; type: cell-based; details: 10 uM S1P (only at this concentration)
Description: as §1, §2

[5] = test system: COLO205 colorectal tumor xenograft; assay: SC COLO205 colorectal tumor xenograft in nude NCr mice; type: in vivo, mouse; details: LT1009 50 mg/kg ip q3d; Avastin 40 mg/kg iv q7d; Paclitaxel 15 mg/kg iv q1dx5
Method: Nude mice were implanted sc near the right flank with one fragment per mouse of COLO 205 tumor from an in vivo passage. All treatments were initiated the day when 60 mice in each experiment established tumors ranging in size from approximately 100 to 200 mm3. […] Avastin was administered iv at a dosage of 40 mg/kg/dose on a q7d schedule, injected in a volume of 0.1 mL/20 g body weight. Paclitaxel (positive control), was administered iv at a dosage of 15 mg/kg/dose on a q1d×5 schedule, injected in a volume of 0.1 mL/10 g body weight.
(§3) Animals were observed daily for mortality. Tumor dimensions and body weights were collected twice weekly starting with the first day of treatment and including the day of study termination. When the median tumor in the vehicle-treated control group in each study reached approximately 4,000 mg, the study was terminated. Tumors from each animal were harvested, wet weights were recorded, tumors were processed for determination of microvascular densities (MVD) by CD-31 staining. Tumor weights (mg) were calculated using the equation for an ellipsoid sphere (l×w^2)/2=mm^3, where l and w refer to the larger and smaller dimensions collected at each measurement and assuming unit density (1 mm3=1 mg).

[6] = test system: HT29 colon tumor xenografts; assay: SC HT29 colorectal tumor xenograft in nude NCr mice; type: in vivo, mouse; details: LT1009 50 mg/kg ip q2d; Avastin 20 mg/kg iv q4d; 5-FU 75 mg/kg ip q4d
Method: Nude mice were implanted sc near the right flank with one fragment per mouse of HT29 tumor from an in vivo passage. All treatments were initiated the day when 60 mice in each experiment established tumors ranging in size from approximately 100 to 200 mm^3. There were ten mice per treatment group. […] 75 mg/kg 5-FU and 20 mg/kg Avastin were administered ip and iv at a dosage of 75 mg/kg/dose and 20 mg/kg/dose, respectively, q4d, injected in a volume of 0.1 mL/10 g body weight.
as §3, with “recorded, and” for “recorded,”, “MVD” for “microvascular densities (MVD)”, “mm^3=1” for “mm3=1”

[7] = test system: DU145 prostate tumor xenograft; assay: SC DU145 prostate tumor xenograft in nude NCr mice; type: in vivo, mouse; details: LT1009 50 mg/kg ip q2d; Avastin 20 mg/kg q4d; Paclitaxel 7.5 mg/kg q1dx5
Method: Nude mice were implanted sc near the right flank with one fragment per mouse of DU145 tumor from an in vivo passage. All treatments were initiated the day when 60 mice in each experiment established tumors ranging in size from approximately 100 to 200 mm^3. […] Paclitaxel and Avastin were administered iv and ip at a dosage of 7.5 mg/kg/dose and 20 mg/kg/dose, q1d×5 and q4d, respectively, injected in a volume of 0.1 mL/10 g body weight.
During the course of the study tumor growth was monitored by measuring the sc tumors on three axes and calculating the volume. At the end of the study final tumor weights and volumes were determined and then the mice were sacrificed, the tumors harvested. Microvascular densities (MVD) of the tumors were then determined by CD-31 staining.

CCCCCCCCc1ccc(CCC(N)(CO)CO)cc1 [FTY720]
reduction of peripheral lymphocyte counts [1]: 30-70%

CCCCCCCCCCCCC/C=C/[C@@H](O)[C@@H](N)COP(=O)(O)O [S1P, sphingosine-1-phosphate]
increase of EC infiltration vs Matrigel only plugs [2]: 3 fold
alpha-SMA expression ([3]; 0.001 uM S1P): significant increase
alpha-SMA expression ([3]; 10 uM S1P): decreased to basal levels
alpha-SMA expression [4]: significant increase

Avastin: anti-angiogenic drug, bevacizumab (Avastin, Genentech)
% Reduction compared to Vehicle-Treated Mice [5]: 35%
% Reduction compared to Vehicle-Treated Mice [6]: 30%
% Reduction compared to Vehicle-Treated Mice [7]: 80% and 79%
